Data on three molecules can be found in PubChem BioAssay AID602484 (Southern Research Specialized Biocontainment Screening …, 2012).

Structures are written as SMILES.

The assay deals with VEEV TrD infected cells, CPE inhibition. The assay is described as follows: VEEV Trinidad donkey strain, infected cells, CPE inhibition, confirmatory IC50 (AID 602484).
Take `CN1CCN(Cc2nc3ccc([N+](=O)[O-])cc3c(=O)n2-c2ccccc2F)CC1`: the concentration for half-maximal inhibition (IC50) (commonly the concentration that inhibits the measured activity by half) is 270 nM.

In the case of `CN(C(=O)Cc1cccs1)c1nc2c(s1)CCCC2`, the half-maximal inhibitory concentration (IC50) was 2030 nM.

On to `CCN1CCN(Cc2nc3ccc([N+](=O)[O-])cc3c(=O)n2-c2ccccc2F)CC1`, for which the IC50 is 370 nM.
